One data set deals with J774. The experiment in a line: Cytotoxicity against mouse J774 cells assessed as cell viability after 48 hrs by MTT assay. Type of data set: cell-based. Conditions: J774, 48 h. (Formazan colour is commonly taken as a measure of viable cells.)
Data set [1] deals with Salmonella typhimurium. The experiment in a line: Mutagenicity in Salmonella typhimurium TA98 at 0.06 to 5 ug/plate after 1 hr by Ames test in presence of S9 fraction. Type of data set: toxicity, organism-based. Conditions: salmonella enterica subsp. enterica serovar typhimurium, s9, 1 h. For orientation: The Ames test uses bacterial strains that need an amino acid and regain growth without it when mutated back.

The subject of data set [2] is Salmonella typhimurium. The experiment in a line: Mutagenicity in Salmonella typhimurium TA98 at 0.06 to 5 ug/plate after 1 hr by Ames test in absence of S9 fraction. Type of data set: toxicity, organism-based. To be noted: salmonella enterica subsp. enterica serovar typhimurium.
In data set [3] the test system is Trypanosoma cruzi. The data set can be described thus: Ratio of nifurtimox IC50 to compound IC50 for epimastigote form of Trypanosoma cruzi Tulahuen 2. Type of data set: functional.
Data set [4] has as its system Trypanosoma cruzi. The data set can be described thus: Antichagasic activity against epimastigote form of Trypanosoma cruzi Tulahuen 2 assessed as parasite growth inhibition at 25 uM measured on day 5 relative to control. It is filed as functional. To be noted: Tulahuen 2, 120 h, read-out: GI.
The nature of data set [5]: Selectivity index, ratio of IC50 for mouse J774 cells to IC50 for epimastigote form of Trypanosoma cruzi Tulahuen 2. Conditions: read-out: Ratio IC50. It is filed as toxicity, cell-based.
The subject of data set [6] is Trypanosoma cruzi. The experiment in a line: Antichagasic activity against epimastigote form of Trypanosoma cruzi Tulahuen 2 assessed as parasite growth inhibition measured on day 5. To be noted: Tulahuen 2, 120 h. Type of data set: functional, organism-based.
Data set [7] has as its system Salmonella typhimurium. The experiment in a line: Mutagenicity in Salmonella typhimurium TA98 at 0.06 to 12.5 ug/plate after 1 hr by Ames test in presence of S9 fraction. It is filed as toxicity, organism-based. To be noted: salmonella enterica subsp. enterica serovar typhimurium, s9, 1 h.
In data set [8] the test system is Salmonella typhimurium. The data set can be described thus: Mutagenicity in Salmonella typhimurium TA98 at 0.06 to 12.5 ug/plate after 1 hr by Ames test in absence of S9 fraction. Type of data set: toxicity, organism-based. To be noted: salmonella enterica subsp. enterica serovar typhimurium.
Data set [9] deals with Salmonella typhimurium. The data set can be described thus: Mutagenicity in Salmonella typhimurium TA98 at 0.3 to 25 ug/plate after 1 hr by Ames test in presence of S9 fraction. It is filed as toxicity, organism-based. To be noted: salmonella enterica subsp. enterica serovar typhimurium, s9, 1 h.
Data set [10] concerns Salmonella typhimurium. The data set can be described thus: Mutagenicity in Salmonella typhimurium TA98 at 0.3 to 25 ug/plate after 1 hr by Ames test in absence of S9 fraction. Type of data set: toxicity, organism-based. Conditions: salmonella enterica subsp. enterica serovar typhimurium.
In data set [11] the test system is Salmonella typhimurium. The data set can be described thus: Mutagenicity in Salmonella typhimurium TA98 at 0.61 to 50 ug/plate after 1 hr by Ames test in absence of S9 fraction. To be noted: salmonella enterica subsp. enterica serovar typhimurium. It is filed as toxicity, organism-based.
The test system of data set [12] is Salmonella typhimurium. The experiment in a line: Mutagenicity in Salmonella typhimurium TA98 at 0.61 to 50 ug/plate after 1 hr by Ames test in presence of S9 fraction. It is filed as toxicity, organism-based. Conditions: salmonella enterica subsp. enterica serovar typhimurium, s9, 1 h.
The subject of data set [13] is Salmonella typhimurium. The data set can be described thus: Mutagenicity in Salmonella typhimurium TA98 at 1.2 X 10^-3 to 5 ug/plate after 1 hr by Ames test in presence of S9 fraction. Type of data set: toxicity, organism-based. Conditions: salmonella enterica subsp. enterica serovar typhimurium, s9, 1 h.
Data set [14] concerns Salmonella typhimurium. The experiment in a line: Mutagenicity in Salmonella typhimurium TA98 at 1.2 X 10^-3 to 5 ug/plate after 1 hr by Ames test in absence of S9 fraction. It is filed as toxicity, organism-based. Conditions: salmonella enterica subsp. enterica serovar typhimurium.
Data set [15] has as its system Salmonella typhimurium. The experiment in a line: Mutagenicity in Salmonella typhimurium TA98 at 0.012 to 1 ug/plate after 1 hr by Ames test in absence of S9 fraction. It is filed as toxicity, organism-based. To be noted: salmonella enterica subsp. enterica serovar typhimurium.
The subject of data set [16] is Salmonella typhimurium. The data set can be described thus: Mutagenicity in Salmonella typhimurium TA98 at 0.012 to 1 ug/plate after 1 hr by Ames test in presence of S9 fraction. Type of data set: toxicity, organism-based. To be noted: salmonella enterica subsp. enterica serovar typhimurium, s9, 1 h.

We go through 19 compounds from ChEMBL document CHEMBL2413059, “Novel quinoxaline 1,4-di-N-oxide derivatives as new potential antichagasic agents” (Eur J Med Chem, 2013).

On to `CCOC(=O)c1c(C(F)(F)F)[n+]([O-])c2cc(F)c(F)cc2[n+]1[O-]`, for which the IC50 in the data set with J774 turned out to be 4 µM; in the data set with Trypanosoma cruzi [6], 0.4 µM. Besides, the Activity entry is “Non-toxic” in the data set with Salmonella typhimurium [1] and “Toxic” with Salmonella typhimurium [2]. For the same compound, the “Ratio IC50” value in the data set on Trypanosoma cruzi [3] amounted to 18. Also, the inhibition of growth at 25 µM in the data set with Trypanosoma cruzi [4] turned out to be 100%. For the same compound, the selectivity ratio in [5] was 10.
Take `CCOC(=O)c1c(C(F)(F)F)[n+]([O-])c2ccc(C(F)(F)F)cc2[n+]1[O-]`: the IC50 in the data set on J774 was 4.2 µM; with Trypanosoma cruzi [6], 1 µM. In addition, the inhibition of growth at 25 µM in the data set on Trypanosoma cruzi [4] is 100%. For the same compound, the selectivity ratio in data set [5] was 4.2. Also, the Activity entry in the data set on Salmonella typhimurium [7] and in the data set with Salmonella typhimurium [8] was “Non-toxic” each time.
With `COC(=O)c1c(C(F)(F)F)[n+]([O-])c2ccccc2[n+]1[O-]`, the half-maximal inhibitory concentration (IC50) in the data set with J774 is 19 µM; with Trypanosoma cruzi [6], 2.6 µM. Moreover, the Activity entry in the data set on Salmonella typhimurium [1] and with Salmonella typhimurium [2] was “Toxic” in each case. Further, the inhibition of growth at 25 µM in the data set on Trypanosoma cruzi [4] came out at 100%. In addition, the selectivity ratio in data set [5] turned out to be 7.3.
Take `COC(=O)c1c(C(F)(F)F)[n+]([O-])c2ccc(OC)cc2[n+]1[O-]`: the Activity entry in the data set on Salmonella typhimurium [9] and in the data set with Salmonella typhimurium [10] was “Toxic” each time. Moreover, in the data set on Trypanosoma cruzi [4], the inhibition of growth at 25 µM came out at 86.6%. Further, the IC50 with Trypanosoma cruzi [6] is 4.6 µM.
On to `COC(=O)c1c(C(F)(F)F)[n+]([O-])c2ccc(C)cc2[n+]1[O-]`, for which the 50% inhibitory concentration (IC50) was 4 µM in the data set with J774 and 13.7 µM in the data set with Trypanosoma cruzi [6]. Further, the Activity result with Salmonella typhimurium [1] and in the data set on Salmonella typhimurium [2] was “Toxic” each time. Further, the inhibition of growth at 25 µM in the data set with Trypanosoma cruzi [4] was 96.1%. Besides, the selectivity ratio in [5] turned out to be 0.3.
As for `COC(=O)c1c(C(F)(F)F)[n+]([O-])c2cc(C)c(C)cc2[n+]1[O-]`, the Activity result in the data set with Salmonella typhimurium [11] and in the data set on Salmonella typhimurium [12] was “Toxic” throughout. Moreover, the 50% inhibitory concentration (IC50) in the data set with J774 is 4 µM; in the data set with Trypanosoma cruzi [6], 5 µM. Further, in the data set on Trypanosoma cruzi [4], the inhibition of growth at 25 µM worked out at 91.6%. For the same compound, in [5], the selectivity ratio was found to be 0.8.
Take `COC(=O)c1c(C(F)(F)F)[n+]([O-])c2ccc(Cl)cc2[n+]1[O-]`: the Activity result with Salmonella typhimurium [13] is “Non-toxic”; in the data set on Salmonella typhimurium [14], “Toxic”. Further, the inhibition of growth at 25 µM in the data set with Trypanosoma cruzi [4] worked out at 100%. Also, in the data set with Trypanosoma cruzi [6], the IC50 is 1.8 µM.
With `COC(=O)c1c(C(F)(F)F)[n+]([O-])c2cc(Cl)c(Cl)cc2[n+]1[O-]`, the Activity result in the data set with Salmonella typhimurium [15] and in the data set with Salmonella typhimurium [16] was “Non-toxic” in each case. The IC50 with J774 amounted to 0.5 µM; with Trypanosoma cruzi [6] it was 10.8 µM. In addition, in the data set with Trypanosoma cruzi [4], the inhibition of growth at 25 µM came to 100%. Also, the selectivity ratio in [5] is less than 0.1.
On to `COC(=O)c1c(C(F)(F)F)[n+]([O-])c2ccc(F)cc2[n+]1[O-]`, for which the IC50 was found to be 2.5 µM in the data set with J774 and 3.5 µM with Trypanosoma cruzi [6]. The Activity entry is on record as “Non-toxic” in the data set on Salmonella typhimurium [9] and “Toxic” in the data set on Salmonella typhimurium [10]. Moreover, the inhibition of growth at 25 µM in the data set on Trypanosoma cruzi [4] was determined as 100%. In addition, the selectivity ratio in data set [5] worked out at 0.7.
Take `COC(=O)c1c(C(F)(F)F)[n+]([O-])c2cc(F)c(F)cc2[n+]1[O-]`: the results for the Activity entry with Salmonella typhimurium [1] and in the data set on Salmonella typhimurium [2] were “Non-toxic” and “Toxic”, respectively. Moreover, the inhibition of growth at 25 µM in the data set with Trypanosoma cruzi [4] was found to be 100%. Besides, the concentration for half-maximal inhibition (IC50) with Trypanosoma cruzi [6] stood at 1.5 µM.
Take `COC(=O)c1c(C(F)(F)F)[n+]([O-])c2ccc(C(F)(F)F)cc2[n+]1[O-]`: the concentration for half-maximal inhibition (IC50) is 4 µM in the data set on J774 and 5 µM in the data set with Trypanosoma cruzi [6]. For the same compound, the Activity entry with Salmonella typhimurium [1] and in the data set on Salmonella typhimurium [2] was “Non-toxic” each time. Besides, the inhibition of growth at 25 µM in the data set on Trypanosoma cruzi [4] amounted to 100%. Moreover, the selectivity ratio in data set [5] is 0.8.
`CCOC(=O)c1c(C(F)(F)F)[n+]([O-])c2ccccc2[n+]1[O-]`: the 50% inhibitory concentration (IC50) in the data set on J774 and with Trypanosoma cruzi [6] was 4 µM in each case. Further, the Activity entry is “Non-toxic” with Salmonella typhimurium [1] and “Toxic” in the data set on Salmonella typhimurium [2]. Besides, the inhibition of growth at 25 µM in the data set on Trypanosoma cruzi [4] stood at 100%. The selectivity ratio in data set [5] stood at 1.
In the case of `CCOC(=O)c1c(C(F)(F)F)[n+]([O-])c2ccc(OC)cc2[n+]1[O-]`, the figures for the IC50 in the data set on J774 and in the data set with Trypanosoma cruzi [6] were 6 µM and 4.8 µM, respectively. Moreover, the Activity entry with Salmonella typhimurium [9] and with Salmonella typhimurium [10] was “Toxic” throughout. In the data set on Trypanosoma cruzi [4], the inhibition of growth at 25 µM was found to be 100%. In data set [5], the selectivity ratio was found to be 1.2.
As for `CCOC(=O)c1c(C(F)(F)F)[n+]([O-])c2ccc(C)cc2[n+]1[O-]`, the half-maximal inhibitory concentration (IC50) with J774 was 7 µM; in the data set with Trypanosoma cruzi [6] it was 4.8 µM. For the same compound, the Activity entry was “Non-toxic” with Salmonella typhimurium [9] and “Toxic” in the data set with Salmonella typhimurium [10]. In the data set on Trypanosoma cruzi [4], the inhibition of growth at 25 µM is 100%. In addition, the selectivity ratio in data set [5] was 1.4.
Regarding `CCOC(=O)c1c(C(F)(F)F)[n+]([O-])c2cc(C)c(C)cc2[n+]1[O-]`, the values for the half-inhibitory concentration (IC50) in the data set with J774 and in the data set with Trypanosoma cruzi [6] were 4 µM and 7.6 µM, respectively. Moreover, in the data set with Trypanosoma cruzi [4], the inhibition of growth at 25 µM is 87.5%. Also, the selectivity ratio in data set [5] was 0.5. Moreover, the figures for the Activity result with Salmonella typhimurium [7] and in the data set with Salmonella typhimurium [8] were “Non-toxic” and “Toxic”, respectively.
As to `CCOC(=O)c1c(C(F)(F)F)[n+]([O-])c2ccc(Cl)cc2[n+]1[O-]`, the Activity result in the data set with Salmonella typhimurium [1] is on record as “Non-toxic”; in the data set with Salmonella typhimurium [2] it was “Toxic”. Besides, in the data set on Trypanosoma cruzi [4], the inhibition of growth at 25 µM was 100%. Further, the IC50 in the data set on Trypanosoma cruzi [6] was determined as 1.8 µM.
`CCOC(=O)c1c(C(F)(F)F)[n+]([O-])c2cc(Cl)c(Cl)cc2[n+]1[O-]`: the Activity entry with Salmonella typhimurium [1] and with Salmonella typhimurium [2] was “Non-toxic” each time. The inhibition of growth at 25 µM in the data set on Trypanosoma cruzi [4] worked out at 100%. For the same compound, the concentration for half-maximal inhibition (IC50) in the data set with Trypanosoma cruzi [6] worked out at 2.9 µM.
For the compound `CCOC(=O)c1c(C(F)(F)F)[n+]([O-])c2ccc(F)cc2[n+]1[O-]`, the half-inhibitory concentration (IC50) in the data set on J774 stood at 0.5 µM; in the data set with Trypanosoma cruzi [6], 3.3 µM. Further, the Activity entry in the data set with Salmonella typhimurium [1] was “Non-toxic”; with Salmonella typhimurium [2], “Toxic”. Also, the inhibition of growth at 25 µM with Trypanosoma cruzi [4] is 100%. In data set [5], the selectivity ratio is 0.1.
Consider `CC1CS(=O)(=O)CCN1/N=C/c1ccc([N+](=O)[O-])o1` (configuration not stated) [NIFURTIMOX], for which, in the data set with J774, the 50% inhibitory concentration (IC50) was 316 µM. Moreover, the inhibition of growth at 25 µM with Trypanosoma cruzi [4] was 100%. In addition, the selectivity ratio in data set [5] came out at 41.

Broadly, the IC50 is the concentration that gives 50% inhibition.
